From ChEMBL document CHEMBL4507311, “Data for DCP probe A-1155463” (2021)

Experiments:
[1] = biological target: Ribosomal protein S6 kinase alpha-4 (Homo sapiens) (UniProt O75676); settings: Compound concentration 1000.0 nM
[2] = biological target: 5-hydroxytryptamine receptor 1D (Homo sapiens) (UniProt P28221); settings: Compound concentration 10.0 uM
[3] = biological target: Ephrin type-A receptor 6 (Homo sapiens) (UniProt Q9UF33); settings: Compound concentration 1000.0 nM
[4] = system: Tyrosine-protein kinase ABL1 (Homo sapiens), P00519 [Y253F]; settings: Compound concentration 1000.0 nM
[5] = biological target: T1, 5-hydroxytryptamine receptor 3A (Homo sapiens) (UniProt P46098); settings: Compound concentration 10.0 uM
T1 sequence (whole entry): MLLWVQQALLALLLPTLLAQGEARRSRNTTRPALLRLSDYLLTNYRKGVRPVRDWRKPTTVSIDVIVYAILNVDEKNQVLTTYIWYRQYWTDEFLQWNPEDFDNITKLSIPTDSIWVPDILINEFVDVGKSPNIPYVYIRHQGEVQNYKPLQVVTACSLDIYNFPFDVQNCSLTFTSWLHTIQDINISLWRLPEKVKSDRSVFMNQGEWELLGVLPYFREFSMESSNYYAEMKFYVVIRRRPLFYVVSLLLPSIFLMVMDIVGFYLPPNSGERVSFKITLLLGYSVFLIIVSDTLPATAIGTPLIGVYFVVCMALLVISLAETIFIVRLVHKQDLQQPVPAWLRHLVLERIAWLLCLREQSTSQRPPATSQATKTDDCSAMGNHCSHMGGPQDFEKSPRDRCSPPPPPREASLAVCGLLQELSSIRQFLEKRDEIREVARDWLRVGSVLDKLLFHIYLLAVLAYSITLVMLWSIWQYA

[6] = biological target: Aurora kinase B (Homo sapiens) (UniProt Q96GD4); settings: Compound concentration 1000.0 nM
Sequence of Aurora kinase B (Homo sapiens) (Q96GD4 whole entry): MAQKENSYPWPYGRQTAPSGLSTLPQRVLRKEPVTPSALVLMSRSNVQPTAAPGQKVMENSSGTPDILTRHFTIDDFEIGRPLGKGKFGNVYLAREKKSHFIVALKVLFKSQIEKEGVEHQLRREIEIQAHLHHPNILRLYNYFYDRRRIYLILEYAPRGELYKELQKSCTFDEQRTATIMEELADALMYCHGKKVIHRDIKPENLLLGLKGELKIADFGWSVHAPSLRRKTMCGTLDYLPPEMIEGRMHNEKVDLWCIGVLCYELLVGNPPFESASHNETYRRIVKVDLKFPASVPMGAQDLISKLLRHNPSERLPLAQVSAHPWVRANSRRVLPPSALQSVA

[7] = biological target: Calcium/calmodulin-dependent protein kinase kinase 2 (Homo sapiens) (UniProt Q96RR4); settings: Compound concentration 1000.0 nM
[8] = system: Receptor-type tyrosine-protein kinase FLT3 (Homo sapiens), P36888 [UNDEFINED MUTATION]; settings: Compound concentration 1000.0 nM
[9] = biological target: Serine/threonine-protein kinase PLK3 (Homo sapiens) (UniProt Q9H4B4); settings: Compound concentration 1000.0 nM
[10] = biological target: Serine/threonine-protein kinase N2 (Homo sapiens) (UniProt Q16513); settings: Compound concentration 1000.0 nM
[11] = biological target: Tyrosine-protein kinase Tec (Homo sapiens) (UniProt P42680); settings: Compound concentration 1000.0 nM
[12] = system: Tyrosine-protein kinase ABL1 (Homo sapiens), P00519 [Q252H]; settings: Compound concentration 1000.0 nM
[13] = biological target: Serine/threonine-protein kinase B-raf (Homo sapiens) (UniProt P15056); settings: Compound concentration 1000.0 nM
[14] = biological target: Dual specificity protein kinase CLK1 (Homo sapiens) (UniProt P49759); settings: Compound concentration 1000.0 nM
Sequence of Dual specificity protein kinase CLK1 (Homo sapiens) (P49759 whole entry, looked up): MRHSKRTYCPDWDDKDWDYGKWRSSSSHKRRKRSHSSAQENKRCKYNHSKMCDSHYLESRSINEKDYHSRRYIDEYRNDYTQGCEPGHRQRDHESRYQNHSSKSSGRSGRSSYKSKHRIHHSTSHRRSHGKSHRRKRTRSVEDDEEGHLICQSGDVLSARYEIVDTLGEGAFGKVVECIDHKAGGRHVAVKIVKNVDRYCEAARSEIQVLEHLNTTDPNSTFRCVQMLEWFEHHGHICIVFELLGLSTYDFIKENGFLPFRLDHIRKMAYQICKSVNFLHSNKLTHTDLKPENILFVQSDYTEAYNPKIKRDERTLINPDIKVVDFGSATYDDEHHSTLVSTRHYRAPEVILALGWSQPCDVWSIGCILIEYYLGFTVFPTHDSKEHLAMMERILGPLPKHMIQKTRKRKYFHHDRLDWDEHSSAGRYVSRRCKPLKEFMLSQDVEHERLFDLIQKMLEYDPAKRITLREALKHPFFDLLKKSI

[15] = system: Mast/stem cell growth factor receptor Kit (Homo sapiens), P10721 [A829P]; settings: Compound concentration 1000.0 nM
[16] = biological target: RAC-beta serine/threonine-protein kinase (Homo sapiens) (UniProt P31751); settings: Compound concentration 1000.0 nM
Sequence of RAC-beta serine/threonine-protein kinase (Homo sapiens) (P31751 whole entry): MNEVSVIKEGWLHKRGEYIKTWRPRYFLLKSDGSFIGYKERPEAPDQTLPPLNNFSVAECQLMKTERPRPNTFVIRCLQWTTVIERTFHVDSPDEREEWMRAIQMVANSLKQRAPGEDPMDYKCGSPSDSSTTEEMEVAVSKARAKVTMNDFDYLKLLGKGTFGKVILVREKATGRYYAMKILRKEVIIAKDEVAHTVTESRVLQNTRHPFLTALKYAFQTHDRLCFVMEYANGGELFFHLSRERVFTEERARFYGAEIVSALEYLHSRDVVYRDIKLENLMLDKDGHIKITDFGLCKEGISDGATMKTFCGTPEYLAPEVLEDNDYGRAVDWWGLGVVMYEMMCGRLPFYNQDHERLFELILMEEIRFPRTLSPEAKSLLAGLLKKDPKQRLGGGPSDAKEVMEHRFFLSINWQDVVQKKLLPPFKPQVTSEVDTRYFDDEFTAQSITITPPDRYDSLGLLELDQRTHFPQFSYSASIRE

[17] = biological target: Delta-type opioid receptor (Homo sapiens, UniProt P41143); settings: Compound concentration 10.0 uM
[18] = biological target: Cyclin-dependent kinase 18 (Homo sapiens) (UniProt Q07002); settings: Compound concentration 1000.0 nM
[19] = biological target: T2, 5-hydroxytryptamine receptor 1A (Homo sapiens) (UniProt P08908); settings: Compound concentration 10.0 uM
T2 sequence (whole entry): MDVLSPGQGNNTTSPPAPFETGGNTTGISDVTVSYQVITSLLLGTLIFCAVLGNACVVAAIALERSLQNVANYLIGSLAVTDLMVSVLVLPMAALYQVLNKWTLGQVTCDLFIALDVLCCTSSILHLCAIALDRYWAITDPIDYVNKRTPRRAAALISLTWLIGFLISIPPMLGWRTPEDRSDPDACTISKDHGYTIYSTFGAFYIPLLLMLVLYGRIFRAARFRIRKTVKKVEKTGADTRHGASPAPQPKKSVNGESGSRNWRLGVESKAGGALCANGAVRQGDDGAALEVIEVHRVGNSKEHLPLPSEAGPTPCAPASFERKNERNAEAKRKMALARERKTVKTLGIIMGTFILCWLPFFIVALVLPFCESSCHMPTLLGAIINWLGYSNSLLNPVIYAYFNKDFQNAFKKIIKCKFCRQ

[20] = biological target: Ephrin type-B receptor 4 (Homo sapiens) (UniProt P54760); settings: Compound concentration 1000.0 nM
[21] = biological target: Casein kinase I isoform epsilon (Homo sapiens) (UniProt P49674); settings: Compound concentration 1000.0 nM
Sequence of Casein kinase I isoform epsilon (Homo sapiens) (P49674 whole entry, looked up, canonical isoform): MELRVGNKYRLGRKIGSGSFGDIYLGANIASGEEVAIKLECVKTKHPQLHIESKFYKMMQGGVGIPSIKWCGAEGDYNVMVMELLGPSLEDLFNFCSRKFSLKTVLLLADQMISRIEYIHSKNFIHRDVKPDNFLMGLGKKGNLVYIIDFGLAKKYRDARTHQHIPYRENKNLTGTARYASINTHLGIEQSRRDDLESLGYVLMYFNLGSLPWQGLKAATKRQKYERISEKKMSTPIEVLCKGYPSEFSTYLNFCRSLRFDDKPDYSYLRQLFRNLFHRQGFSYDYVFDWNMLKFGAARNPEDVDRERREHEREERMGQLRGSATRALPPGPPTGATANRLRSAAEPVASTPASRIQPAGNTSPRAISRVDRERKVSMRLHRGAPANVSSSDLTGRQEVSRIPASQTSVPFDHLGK

[22] = biological target: Mast/stem cell growth factor receptor Kit (Homo sapiens) (UniProt P10721); settings: Compound concentration 1000.0 nM
[23] = biological target: Mitogen-activated protein kinase kinase kinase 9 (Homo sapiens) (UniProt P80192); settings: Compound concentration 1000.0 nM
Sequence of Mitogen-activated protein kinase kinase kinase 9 (Homo sapiens) (P80192 whole entry, looked up): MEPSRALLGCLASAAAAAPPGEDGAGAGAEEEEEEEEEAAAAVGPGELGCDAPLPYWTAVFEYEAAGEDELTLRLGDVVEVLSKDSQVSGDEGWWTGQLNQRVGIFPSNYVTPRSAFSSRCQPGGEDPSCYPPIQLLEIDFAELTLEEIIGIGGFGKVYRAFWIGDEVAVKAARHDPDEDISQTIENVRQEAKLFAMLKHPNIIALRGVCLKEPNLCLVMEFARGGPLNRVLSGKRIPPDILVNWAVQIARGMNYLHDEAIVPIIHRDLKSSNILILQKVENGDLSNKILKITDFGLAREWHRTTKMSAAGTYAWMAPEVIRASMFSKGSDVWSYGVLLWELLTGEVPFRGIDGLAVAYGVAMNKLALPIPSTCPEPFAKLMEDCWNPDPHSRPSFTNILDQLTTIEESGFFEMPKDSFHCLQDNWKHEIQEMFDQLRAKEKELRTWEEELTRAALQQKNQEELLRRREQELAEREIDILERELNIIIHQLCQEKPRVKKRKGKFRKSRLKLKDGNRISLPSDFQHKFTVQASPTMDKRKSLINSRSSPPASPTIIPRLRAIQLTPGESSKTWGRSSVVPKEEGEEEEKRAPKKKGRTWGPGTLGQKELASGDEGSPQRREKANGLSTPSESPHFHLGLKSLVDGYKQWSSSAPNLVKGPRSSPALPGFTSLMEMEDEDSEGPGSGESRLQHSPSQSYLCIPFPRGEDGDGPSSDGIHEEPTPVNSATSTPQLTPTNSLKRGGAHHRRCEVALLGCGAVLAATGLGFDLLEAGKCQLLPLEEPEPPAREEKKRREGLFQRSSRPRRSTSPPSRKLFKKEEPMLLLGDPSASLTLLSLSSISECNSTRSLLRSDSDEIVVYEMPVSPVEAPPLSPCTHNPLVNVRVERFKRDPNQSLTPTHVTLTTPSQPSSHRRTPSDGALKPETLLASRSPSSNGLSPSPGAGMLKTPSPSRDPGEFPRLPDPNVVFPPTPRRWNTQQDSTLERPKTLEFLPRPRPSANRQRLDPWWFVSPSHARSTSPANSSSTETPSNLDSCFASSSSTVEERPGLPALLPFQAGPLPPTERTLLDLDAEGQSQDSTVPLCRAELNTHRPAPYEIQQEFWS

[24] = biological target: Myosin-IIIa (Homo sapiens) (UniProt Q8NEV4); settings: Compound concentration 1000.0 nM
[25] = biological target: Histamine H4 receptor (Homo sapiens) (UniProt Q9H3N8); settings: Compound concentration 10.0 uM
[26] = biological target: Sigma non-opioid intracellular receptor 1 (Homo sapiens, UniProt Q99720); settings: Compound concentration 10.0 uM
[27] = system: Tyrosine-protein kinase ABL1 (Homo sapiens), P00519 [T315I]; settings: Compound concentration 1000.0 nM
[28] = biological target: Serine/threonine-protein kinase ICK (Homo sapiens) (UniProt Q9UPZ9); settings: Compound concentration 1000.0 nM
Sequence of Serine/threonine-protein kinase ICK (Homo sapiens) (Q9UPZ9 whole entry): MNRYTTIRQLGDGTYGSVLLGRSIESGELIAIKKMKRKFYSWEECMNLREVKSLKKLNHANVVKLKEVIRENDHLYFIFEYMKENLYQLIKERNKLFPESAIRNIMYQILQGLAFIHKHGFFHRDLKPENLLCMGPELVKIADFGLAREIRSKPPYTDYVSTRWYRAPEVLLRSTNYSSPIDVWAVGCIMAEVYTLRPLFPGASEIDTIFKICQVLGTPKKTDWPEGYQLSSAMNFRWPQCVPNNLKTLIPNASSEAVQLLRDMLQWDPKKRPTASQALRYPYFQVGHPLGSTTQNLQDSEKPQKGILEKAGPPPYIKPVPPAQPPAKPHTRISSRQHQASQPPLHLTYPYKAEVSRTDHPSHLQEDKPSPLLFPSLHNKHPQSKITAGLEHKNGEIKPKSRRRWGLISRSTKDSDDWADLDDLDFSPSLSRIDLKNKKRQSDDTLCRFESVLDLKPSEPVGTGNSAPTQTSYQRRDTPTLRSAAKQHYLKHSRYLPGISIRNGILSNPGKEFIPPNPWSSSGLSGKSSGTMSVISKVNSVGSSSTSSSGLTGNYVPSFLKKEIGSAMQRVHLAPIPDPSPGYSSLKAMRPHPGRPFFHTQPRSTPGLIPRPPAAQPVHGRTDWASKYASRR

[29] = biological target: Dual specificity mitogen-activated protein kinase kinase 6 (Homo sapiens) (UniProt P52564); settings: Compound concentration 1000.0 nM
[30] = biological target: MAP kinase-interacting serine/threonine-protein kinase 2 (Homo sapiens) (UniProt Q9HBH9); settings: Compound concentration 1000.0 nM
Sequence of MAP kinase-interacting serine/threonine-protein kinase 2 (Homo sapiens) (Q9HBH9 whole entry, looked up): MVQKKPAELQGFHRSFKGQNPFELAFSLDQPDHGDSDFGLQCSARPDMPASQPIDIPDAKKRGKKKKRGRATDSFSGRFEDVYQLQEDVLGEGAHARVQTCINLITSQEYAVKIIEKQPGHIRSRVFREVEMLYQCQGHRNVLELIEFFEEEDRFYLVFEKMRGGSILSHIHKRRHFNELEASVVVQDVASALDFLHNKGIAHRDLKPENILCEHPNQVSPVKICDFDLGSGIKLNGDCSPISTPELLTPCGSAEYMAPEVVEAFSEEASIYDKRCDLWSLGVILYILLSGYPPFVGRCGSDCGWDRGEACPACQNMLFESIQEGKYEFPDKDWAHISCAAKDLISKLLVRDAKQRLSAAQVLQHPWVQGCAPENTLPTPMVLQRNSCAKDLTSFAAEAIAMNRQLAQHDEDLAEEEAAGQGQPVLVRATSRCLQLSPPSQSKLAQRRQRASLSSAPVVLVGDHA

[31] = biological target: Serine/threonine-protein kinase PAK 2 (Homo sapiens) (UniProt Q13177); settings: Compound concentration 1000.0 nM
[32] = biological target: Mitogen-activated protein kinase 12 (Homo sapiens) (UniProt P53778); settings: Compound concentration 1000.0 nM
[33] = biological target: MAP/microtubule affinity-regulating kinase 3 (Homo sapiens) (UniProt P27448); settings: Compound concentration 1000.0 nM

Sequence of Ephrin type-A receptor 6 (Homo sapiens) (Q9UF33 whole entry): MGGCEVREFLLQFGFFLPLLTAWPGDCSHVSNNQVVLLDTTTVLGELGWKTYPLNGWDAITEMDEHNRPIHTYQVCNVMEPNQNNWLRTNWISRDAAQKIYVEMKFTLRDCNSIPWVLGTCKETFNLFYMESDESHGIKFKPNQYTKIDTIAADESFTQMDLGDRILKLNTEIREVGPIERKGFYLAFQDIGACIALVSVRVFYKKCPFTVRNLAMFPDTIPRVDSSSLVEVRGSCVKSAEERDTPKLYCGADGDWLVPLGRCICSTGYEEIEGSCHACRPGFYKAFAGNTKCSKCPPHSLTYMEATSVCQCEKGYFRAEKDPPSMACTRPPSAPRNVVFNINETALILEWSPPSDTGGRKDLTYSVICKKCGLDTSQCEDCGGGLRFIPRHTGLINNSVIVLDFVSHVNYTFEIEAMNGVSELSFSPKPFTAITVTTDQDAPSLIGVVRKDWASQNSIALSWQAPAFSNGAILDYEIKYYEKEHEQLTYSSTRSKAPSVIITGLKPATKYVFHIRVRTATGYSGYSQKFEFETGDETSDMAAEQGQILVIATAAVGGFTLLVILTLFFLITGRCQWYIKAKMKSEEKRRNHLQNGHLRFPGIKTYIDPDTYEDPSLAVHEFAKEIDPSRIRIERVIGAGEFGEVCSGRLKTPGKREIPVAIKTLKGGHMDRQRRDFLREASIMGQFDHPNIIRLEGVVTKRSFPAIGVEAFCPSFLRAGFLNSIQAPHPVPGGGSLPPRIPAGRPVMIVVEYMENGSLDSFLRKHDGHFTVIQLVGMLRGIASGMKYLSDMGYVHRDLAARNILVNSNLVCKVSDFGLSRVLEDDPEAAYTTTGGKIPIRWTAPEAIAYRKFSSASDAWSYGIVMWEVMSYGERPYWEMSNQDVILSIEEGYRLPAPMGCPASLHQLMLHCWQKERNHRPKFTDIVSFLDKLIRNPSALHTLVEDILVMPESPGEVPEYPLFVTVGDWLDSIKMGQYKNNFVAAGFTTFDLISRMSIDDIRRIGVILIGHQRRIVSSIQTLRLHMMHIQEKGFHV

CN(C)CC#Cc1ccc(OCCCc2sc(N3CCc4cccc(C(=O)Nc5nc6ccccc6s5)c4C3)nc2C(=O)O)c(F)c1 [A-1155463]
residual activity [1]: 100% | inhibition [2]: 34.5% | residual activity [3]: 100% | residual activity [4]: 93% | inhibition [5]: 85.4% | residual activity [6]: 79% | residual activity [7]: 100% | residual activity [8]: 100% | residual activity [9]: 92% | residual activity [10]: 100% | residual activity [11]: 97% | residual activity [12]: 94% | residual activity [13]: 100% | residual activity [14]: 88% | residual activity [15]: 100% | residual activity [16]: 100% | inhibition [17]: 54.6% | residual activity [18]: 100% | inhibition [19]: 5.18% | residual activity [20]: 100% | residual activity [21]: 86% | residual activity [22]: 97% | residual activity [23]: 92% | residual activity [24]: 100% | inhibition [25]: 6.5% | inhibition [26]: 53.3% | residual activity [27]: 51% | residual activity [28]: 100% | residual activity [29]: 100% | residual activity [30]: 75% | residual activity [31]: 93% | residual activity [32]: 89% | residual activity [33]: 38%
